# Data published in publication PMC6265791, “Neuroprotective Activity of Some Marine Fungal Metabolites in the 6-Hydroxydopamin- and Paraquat-Induced Parkinson’s Disease Models” (Marine Drugs, 2018).
# Entries after “also recorded” stand apart in the source; their conditions may differ. Where two headings read alike, the source gives them in different places.
# How the values were obtained:
# [1] = system: ROS formation in Neuro2a cells treated with 6-OHDA; assay: ROS level analysis in 6-OHDA-treated cells; type: cell-based; details: for Reduction of ROS level in 6-OHDA-treated cells / Effect on ROS formation in 6-OHDA-treated cells: 10 µM, 6-OHDA 50 µM, 30 min
# Description: (§1) Cell suspensions (1 × 10^3 cells/well) were incubated with compound solutions (10 µM) for 1 h. Then, 6-OHDA at a concentration of 50 µM was added in each well, and cells were incubated for 30 min. In other experiments, cells were incubated with PQ at a concentration of 500 µM for 30 min and 1 h. Cells incubated without 6-OHDA/PQ and compounds, and with 6-OHDA/PQ only, were used as positive and negative controls, respectively. To study ROS formation, 20 µL of 2,7-dichlorodihydrofluorescein diacetate solution (Molecular Probes, Eugene, OR, USA) was added to each well, such that the final concentration was […], and the microplate was incubated for an additional 10 min at 37 °C. The intensity of dichlorofluorescein fluorescence was measured with plate reader PHERAstar FS (BMG Labtech, Ortenberg, Germany) at λex = 485 nm, and λem = 518 nm. The data were processed by MARS Data Analysis v. 3.01R2 (BMG Labtech, Ortenberg, Germany). The results were presented as a percentage of positive control data.
# [2] = system: ROS formation in Neuro2a cells treated with paraquat (PQ); assay: ROS level analysis in PQ-treated cells; type: cell-based; details: for Effect on ROS formation in PQ-treated cells: added 1 h before PQ (500 µM); for Decrease of ROS formation in PQ-treated cells: added 1 h before PQ (500 µM, 1 h)
# Description: as §1, with “Cell suspensions (1 × 10^3 cells/well) were incubated with compound solutions (10 µM) for 1 h.” left out
# [3] = system: Neuro2a cells treated with PQ; assay: Paraquat-induced in vitro model of Parkinson's disease, cell viability (MTT); type: cell-based; details: added 1 h before PQ (500 µM)
# Description: Neuroblastoma Neuro2a line cells (1 × 10^3 cells/well) were treated with compounds at concentrations of 1 and 10 µM for 1 h, and then 500 µM of paraquat (Sigma-Aldrich, St. Louis, MO, USA) was added to the neuroblastoma cell suspension. Cells incubated without paraquat and compounds, and with paraquat only, were used as positive and negative controls, respectively. The viability of cells was measured after 24 h using the MTT method. The results were presented as percent of positive control data.
# [4] = Cell viability (cytotoxicity) assay, MTT; type: cell-based; details: mouse, Neuro2a neuroblastoma cells; Neuro2a cells, 24 h, MTT
# Description: (§2) The neuroblastoma cell line Neuro2a was purchased from ATCC. Cells were cultured in DMEM medium containing 10% fetal bovine serum (Biolot, St. Petersburg, Russia) and 1% penicillin/streptomycin (Invitrogen, Carlsbad, CA, USA). Cells were incubated at 37 °C in a humidified atmosphere containing 5% (v/v) CO2.
# (§3) Cell suspension (1 × 10^3 cells/well) was incubated with different concentration of compounds for 24 h. After that, cell viability was determined using the MTT (3-(4,5-dimethylthiazol-2-yl)-2,5- diphenyltetrazolium bromide) method, according to the manufacturer’s instructions (Sigma-Aldrich, St. Louis, MO, USA). The results were presented as percent of control data, and concentration required for 50% inhibition of cell viability (IC50) was calculated.
# [5] = system: neuroblastoma Neuro2a cells; assay: Cell viability (cytotoxicity) assay, MTT; type: cell-based; details: up to 100 µM
# Description: as §2, §3
# [6] = cited from earlier work
# [7] = cited from earlier work; remark: listed apart in the source
# [8] = system: Neuro2a cells treated with 6-OHDA; assay: 6-Hydroxydopamine-induced in vitro model of Parkinson's disease, cell viability (MTT); type: cell-based; details: for Effect on 6-OHDA-treated cell viability: 10 µM; for Neuroprotective effect in 6-OHDA model at tenfold reduced concentration: 1 µM (concentration reduced tenfold)
# Description: The neuroprotective activities of compounds in 6-hydroxydopamine-induced cell model of Parkinson’s disease were examined, as described previously.
# Neuroblastoma Neuro2a line cells (1 × 10^3 cells/well) were treated with 50 µM of 6-hydroxydopamine (Sigma-Aldrich, St. Louis, MO, USA) for 1 h and, after that, the investigated compounds were added to the neuroblastoma cell suspension at a concentration of 1 and 10 µM. In the other case, the substances were added to the cells 1 h before the addition of the neurotoxin. Cells incubated without 6-OHDA and compounds, and with 6-OHDA only, were used as positive and negative controls, respectively. After 24 h, viability of cells was measured using the MTT method. The results were presented as a percent of positive control data.
# PC12 cells [9] = details: pre-treating for 3 h; cited from earlier work
# [10] = system: MPTP-treated neuroblastoma cells; details: cited from earlier work
# [11] = DPPH radical scavenger assay (cell-free); details: for DPPH radicals scavenged: 100 µM
# Description: DPPH radical scavenging activity of compounds was tested as described.
# Compounds were dissolved in MeOH, and the solutions (160 µL) were dispensed into wells of a 96-well microplate. In all, 40 µL of the DPPH (Sigma-Aldrich, Steinheim, Germany) solution in MeOH (1.5 × 10^−4 M) was added to each well. Concentrations of compounds in mixture were 10 and 100 µM. The mixture was shaken and left to stand for 30 min, and the absorbance of the resulting solution was measured at 520 nm with a microplate reader MultiscanFC (ThermoScientific, Waltham, MA, USA). Radical scavenging activity of all compounds at 100 µM were presented as percent of MeOH data, and the concentration of DPPH radical scavenging at 50% (EC50) was calculated for some compounds.
# A-549 tumor cells = details: read-out: Cytotoxic activity IC50; cited from earlier work
# HL-60 tumor cells = details: read-out: Cytotoxic activity IC50; cited from earlier work
# P-388 tumor cells = details: read-out: Cytotoxic activity IC50; cited from earlier work
# A 549 tumor cells = details: read-out: Cytotoxic activity IC50; cited from earlier work
# KB tumor cells = details: read-out: Cytotoxic activity IC50; cited from earlier work
# PC12 cells [12] = details: cited from earlier work
# Candida albicans = details: cited from earlier work
# [13] = system: osteoclast differentiation; details: cited from earlier work
# [14] = system: dopaminergic neuronal cell death in mouse PD model, nigral neurons, SH-SY5Y cells; details: cited from earlier work
# [15] = read-out: DPPH scavenger activity IC50
# [16] = compound added 1 h after 6-OHDA
# [17] = compound added 1 h before 6-OHDA
compound,measurement,setting,value
"COc1cc(O)c(C)c2c1COC(C)C2 (stereo not drawn) [Compound 3, 8-methoxy-3,5-dimethylisochroman-6-ol]",Reduction of ROS level in 6-OHDA-treated cells,[1],45%
same,Effect on ROS formation in PQ-treated cells,[2],reduced ROS formation
same,Effect on viability of PQ-treated cells,[3],did not exhibit any protective effect
same,IC50 at 24 h,[4],> 100 µM
same,Cytotoxicity against Neuro2a cells,[5],not cytotoxic; also recorded: non-cytotoxic
same,DPPH Radical Scavenging % at 100 µM,[6],62.0 ± 4.6 [16] %
"C[n+]1ccc(-c2cc[n+](C)cc2)cc1 [PQ, paraquat]",Increase of ROS levels in Neuro2a cells by the neurotoxin,[2]; 1 h after adding to the cell suspension,39%
same,Effect on ROS formation in Neuro2a cells,[2]; after 30 min,insignificant
neoechinulin E,IC50,[7]; [15],46 µM
"COc1ccc2[nH]cc(CCNC(C)=O)c2c1 [Compound 1a, Melatonin, reference compound]",Effect on ROS formation in 6-OHDA-treated cells,[1],decreased ROS formation in the 6-OHDA-treated neuronal cell stronger in comparison with 1
same,Decrease of ROS formation in PQ-treated cells,[2]; 10 µM,22%
same,Effect on 6-OHDA-treated cell viability,[8]; [16],did not increase the viability
same,Effect on 6-OHDA-treated cell viability,[8]; [17],did not increase the viability; also recorded: ineffective
same,Viability of PC12 cells in 6-OHDA-induced PD model,PC12 cells [9],"increased viability of the cells, and prevented apoptosis"
same,"Caspase-3 enzyme activity, DNA fragmentation factor 45 cleavage and DNA fragmentation",[10],diminished
"Cc1cc(O)c(C)c(O)c1C(=O)O [Compound 2, 3-methylorsellinic acid]",DPPH radicals scavenged,[11],10%
same,Reduction of ROS level in 6-OHDA-treated cells,[1],30%
same,Effect on ROS formation in PQ-treated cells,[2],reduced ROS formation
same,Effect on viability of PQ-treated cells,[3],did not exhibit any protective effect
same,Effect on 6-OHDA-treated cell viability,[8]; [16],no neuroprotective effect
same,IC50 at 24 h,[4],> 100 µM
same,Cytotoxicity against Neuro2a cells,[5],not cytotoxic; also recorded: non-cytotoxic
"COc1c(-c2ccc(O)cc2)cc(OC)c2c1oc1cc(O)c(O)cc12 [Compound 4, candidusin A]",DPPH radicals scavenged,[11],32%
same,IC50,A-549 tumor cells,19.3 µM
same,Effect on ROS formation in 6-OHDA-treated cells,[1],did not have any effect
same,Decrease of ROS formation in PQ-treated cells,[2]; 10 µM,27%
same,Effect on viability of PQ-treated cells,[3],did not have any effect
same,Effect on 6-OHDA-treated cell viability,[8]; [17],had no effect
same,IC50 at 24 h,[4],75.7 ± 5.6 µM
same,IC50,HL-60 tumor cells,77.6 µM
same,IC50,P-388 tumor cells,46.8 µM
"COc1c(-c2ccccc2)cc(OC)c2c1oc1cc(O)c(O)cc12 [Compound 5, 4″-dehydroxycandidusin A]",DPPH radicals scavenged,[11],49%
same,EC50,[11]; concentration of DPPH radical scavenging at 50%,101 ± 2.8 µM
same,Reduction of ROS level in 6-OHDA-treated cells,[1],34%
same,Decrease of ROS formation in PQ-treated cells,[2]; 1 µM,19%
same,Decrease of ROS formation in PQ-treated cells,[2]; 10 µM,40%
same,Neuroprotective effect in 6-OHDA model at tenfold reduced concentration,[8],neuroprotective effect was not preserved
same,IC50 at 24 h,[4],78.9 ± 1.9 µM
same,IC50,A 549 tumor cells,34 µM
same,IC50,KB tumor cells,22.7 µM
"NCCc1cc(O)c(O)cc1O [6-OHDA, 6-hydroxydopamine, reference compound]",Increase of ROS level in Neuro2a cells by the neurotoxin,[1]; 30 min after addition to the cell suspension,30%
C[C@H]1CO[C@]2(C)Oc3cc(O)c4c(c3C[C@H]12)O[C@@]1(C)OC[C@H](C)[C@H]1C4 [Xyloketal B],Free radical scavenging in DPPH assay,[7],scavenged free radicals
same,Protection of PC12 cells against ischemia-induced cell injury and MPTP-induced neurotoxicity,PC12 cells [12],protected
"CN1C(=O)C(Cc2c(O)cccc2O)NC(=O)C1Cc1ccccc1 (stereo not drawn) [Compound 6, mactanamide]",Activity against Candida albicans,Candida albicans,fungistatic activity
same,DPPH radicals scavenged,[11],15%
same,Reduction of ROS level in 6-OHDA-treated cells,[1],30%
same,Influence on osteoclast differentiation,[13],influence on osteoclast differentiation without any cytotoxicity
same,Decrease of ROS formation in PQ-treated cells,[2]; 1 µM,32%
same,Decrease of ROS formation in PQ-treated cells,[2]; 10 µM,37%
same,Effect on viability of PQ-treated cells,[3],did not show any neuroprotective activity
same,Neuroprotective effect in 6-OHDA model at tenfold reduced concentration,[8],neuroprotective effect was preserved
same,IC50 at 24 h,[4],> 100 µM
same,Cytotoxicity against Neuro2a cells,[5],not cytotoxic; also recorded: non-cytotoxic
OCc1cc(O)c(Cc2cc(O)ccc2O)c(Cl)c1O [Terrestrol G],IC50,[7]; read-out: DPPH-scavenging IC50,4.1 µM
cryptoechinulin D,IC50,[7]; [15],23.6 µM
"CC(=O)NCC(=O)c1c[nH]c2cc(O)ccc12 [Compound 1, 6-hydroxy-N-acetyl-β-oxotryptamine]",DPPH radicals scavenged,[11],48%
same,Reduction of ROS level in 6-OHDA-treated cells,[1],18%
same,Decrease of ROS formation in PQ-treated cells,[2]; 10 µM,35%
same,IC50 at 24 h,[4],> 100 µM
same,Cytotoxicity against Neuro2a cells,[5],not cytotoxic; also recorded: non-cytotoxic
"COc1c(-c2ccc(O)c(O)c2)cc(OC)c2c1oc1cc(O)c(O)cc12 [Candidusin B, reference compound]",DPPH radical scavenging,[7]; 100 µg/mL,59%
CN1C(=O)[C@]23CC4=CC=C[C@H](O)[C@H]4N2C(=O)[C@@]1(CO)SS3 [Gliotoxin],IC50,[7]; [15],5.2 µM
COC(=O)[C@]12Oc3ccc(-c4ccc5c(c4O)C(=O)C4=C(O)C[C@@H](C)[C@H](O)[C@@]4(C(=O)OC)O5)c(O)c3C(=O)C1=C(O)C[C@@H](C)[C@@H]2O [Secalonic acid A],Protection against MPTP-induced dopaminergic neuronal cell death,[14],protected
